Results from PMC10584170, “Machine learning-based phenotypic imaging to characterise the targetable biology of Plasmodium falciparum male gametocytes for the development of transmission-blocking antimalarials” (PLOS Pathogens, 2023).

Experiments:
[1] = test system: P. falciparum male gametocytes; experiment: P. falciparum Dual Gamete Formation Assay (PfDGFA), male readout (exflagellation); format: cell-based, Plasmodium falciparum NF54; settings: for Average inhibition male (%): average of replicates; for % inhibition male (individual replicates) R1: replicate R1; for % inhibition male (individual replicates) R3: replicate R3; for % inhibition male (individual replicates) R4: replicate R4; for Activity: hit = >50% inhibition in male or female readout in at least 3 replicates, 0 = no class assigned
Method in brief: (§1)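 Male and female gamete formation were quantified by microscopy image analysis following 24 h incubation of mature NF54 gametocytes with compound and activation at 28°C with xanthurenic acid.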

[2] = test system: P. falciparum female gametocytes; experiment: P. falciparum Dual Gamete Formation Assay (PfDGFA), female readout (Pfs25-positive female gametes); format: cell-based, Plasmodium falciparum NF54; settings: for Average inhibition female (%): average of replicates; for % inhibition female (individual replicates) R1: replicate R1; for % inhibition female (individual replicates) R3: replicate R3; for % inhibition female (individual replicates) R4: replicate R4
Method in brief: as §1

[3] = 2µM, 24h preincubation with gametocytes prior to induction of gametogenesis
[4] = 2µM, 24h preincubation, hits selected on >50% inhibition in the male readout across replicates
[5] = PfDGFA at 2µM, 24h preincubation
[6] = 2µM, 24h preincubation, hits selected on >50% inhibition in the female readout across replicates
[7] = PfDGFA at 2µM, 24h preincubation with gametocytes
[8] = number of replicates with >50% inhibition in the male readout, 2µM
[9] = number of replicates with >50% inhibition in the female readout, 2µM
[10] = 2µM, 24h preincubation, number of replicates with >50% inhibition in the male readout
[11] = 2µM, 24h preincubation, number of replicates with >50% inhibition in the female readout
[12] = PfDGFA at 2µM, 24h preincubation with gametocytes prior to induction of gametogenesis

CN(C)CCCc1cc2c(cc1Cl)CCN2C(=O)Nc1ccc(-c2ccncc2)c2ccccc12 [TCMDC-139215]
Average inhibition male (%) [1, 3]: 2.0%
% inhibition male (individual replicates) R1 [1, 3]: 5.2%
% inhibition male (individual replicates) R3 [1, 3]: 1.0%
% inhibition male (individual replicates) R4 [1, 3]: 8.2%
HitlevelM [1, 4]: 0
Activity [1, 5]: 0
Average inhibition female (%) [2, 3]: 5.1%
% inhibition female (individual replicates) R1 [2, 3]: 27.9%
% inhibition female (individual replicates) R3 [2, 3]: -29.4%
% inhibition female (individual replicates) R4 [2, 3]: 20.5%
HitlevelF [2, 6]: 0

CN1CCN(c2cc3c(cc2Cl)CCN3C(=O)Nc2ccc(NC(=O)c3ccc(C(F)(F)F)cc3)cc2)CC1.Cl [TCMDC-139270]
Average inhibition male (%) [1, 7]: 84.1%
% inhibition male (individual replicates) R1 [1, 7]: 90.7%
% inhibition male (individual replicates) R3 [1, 7]: 63.5%
% inhibition male (individual replicates) R4 [1, 7]: 92.9%
HitlevelM [1, 8]: 4
Average inhibition female (%) [2, 7]: 59.6%
% inhibition female (individual replicates) R1 [2, 7]: 37.1%
% inhibition female (individual replicates) R3 [2, 7]: 50.9%
% inhibition female (individual replicates) R4 [2, 7]: 69.9%
HitlevelF [2, 9]: 3

CCCCCCCN1CC[C@@H](CCCc2ccnc3ccc(OC)cc23)[C@@H](CCN)C1.O=C(O)C(=O)O [TCMDC-139278]
Average inhibition male (%) [1, 3]: 60.9%
% inhibition male (individual replicates) R1 [1, 3]: 62.0%
% inhibition male (individual replicates) R4 [1, 3]: 48.5%
HitlevelM [1, 4]: 2
Activity [1, 5]: 0
Average inhibition female (%) [2, 3]: 13.3%
% inhibition female (individual replicates) R1 [2, 3]: 23.8%
% inhibition female (individual replicates) R3 [2, 3]: -1.7%
% inhibition female (individual replicates) R4 [2, 3]: 20.4%
HitlevelF [2, 6]: 0

COc1ccc(COc2cc(NCCCN)nc3ccccc23)cc1 [TCMDC-139286]
Average inhibition male (%) [1, 3]: 30.7%
% inhibition male (individual replicates) R1 [1, 3]: 52.7%
% inhibition male (individual replicates) R3 [1, 3]: 36.6%
% inhibition male (individual replicates) R4 [1, 3]: 44.0%
HitlevelM [1, 10]: 1
Average inhibition female (%) [2, 3]: 19.5%
% inhibition female (individual replicates) R1 [2, 3]: 25.0%
% inhibition female (individual replicates) R3 [2, 3]: 18.0%
% inhibition female (individual replicates) R4 [2, 3]: 26.8%
HitlevelF [2, 11]: 0

COc1cc(NCC(O)CNc2cc(OC)c3ccccc3n2)nc2ccccc12 [TCMDC-139360]
Average inhibition male (%) [1, 3]: 53.4%
% inhibition male (individual replicates) R1 [1, 3]: 68.1%
% inhibition male (individual replicates) R3 [1, 3]: 33.7%
% inhibition male (individual replicates) R4 [1, 3]: 64.9%
HitlevelM [1, 10]: 2
Average inhibition female (%) [2, 3]: 25.6%
% inhibition female (individual replicates) R1 [2, 3]: 27.5%
% inhibition female (individual replicates) R3 [2, 3]: 10.8%
% inhibition female (individual replicates) R4 [2, 3]: 36.1%
HitlevelF [2, 11]: 0

COc1ccc(C(=O)Nc2cc(Cl)c3c(c2)C2CCCN2CC3)cc1C(F)(F)F.Cl (stereo not shown) [TCMDC-139417]
% inhibition male (individual replicates) R1 [1, 12]: -1.3%
% inhibition male (individual replicates) R4 [1, 12]: 9.8%
Average inhibition male (%) [1, 5]: 13.2%
% inhibition female (individual replicates) R1 [2, 12]: 2.5%
% inhibition female (individual replicates) R3 [2, 12]: -4.3%
% inhibition female (individual replicates) R4 [2, 12]: 1.3%
Average inhibition female (%) [2, 5]: 1.8%

N=C(N)Nc1nc(-c2cccc(NC(=O)NCCc3c[nH]c4ccc(OCc5ccccc5)cc34)c2)cs1 [TCMDC-139557]
Average inhibition male (%) [1, 3]: 6.6%
% inhibition male (individual replicates) R1 [1, 3]: 1.3%
% inhibition male (individual replicates) R3 [1, 3]: 4.0%
% inhibition male (individual replicates) R4 [1, 3]: 10.9%
HitlevelM [1, 4]: 0
Activity [1, 5]: 0
Average inhibition female (%) [2, 3]: 5.9%
% inhibition female (individual replicates) R1 [2, 3]: 1.1%
% inhibition female (individual replicates) R3 [2, 3]: -17.0%
% inhibition female (individual replicates) R4 [2, 3]: 37.8%
HitlevelF [2, 6]: 0

CC(Cc1ccc(CNC(=O)c2ccc(CC(C)NCCc3cccc(Cl)c3)cc2)cc1)NCCc1cccc(Cl)c1 (stereo not shown) [TCMDC-139659]
Average inhibition male (%) [1, 3]: 33.9%
% inhibition male (individual replicates) R1 [1, 3]: 26.3%
% inhibition male (individual replicates) R3 [1, 3]: 2.8%
% inhibition male (individual replicates) R4 [1, 3]: 42.9%
HitlevelM [1, 4]: 1
Activity [1, 5]: 0
Average inhibition female (%) [2, 3]: 5.1%
% inhibition female (individual replicates) R1 [2, 3]: 10.4%
% inhibition female (individual replicates) R3 [2, 3]: -19.4%
% inhibition female (individual replicates) R4 [2, 3]: -1.7%
HitlevelF [2, 6]: 0

O=C(/C=C/c1ccc(Cl)c(Cl)c1)N1CCC2CC(N3CCC(c4c[nH]c5ccccc45)CC3)CCC2C1 (stereo not shown) [TCMDC-139677]
Average inhibition male (%) [1, 3]: 6.9%
% inhibition male (individual replicates) R1 [1, 3]: -0.85%
% inhibition male (individual replicates) R3 [1, 3]: 2.4%
% inhibition male (individual replicates) R4 [1, 3]: 12.3%
HitlevelM [1, 4]: 0
Activity [1, 5]: 0
Average inhibition female (%) [2, 3]: 4.1%
% inhibition female (individual replicates) R1 [2, 3]: 10.8%
% inhibition female (individual replicates) R3 [2, 3]: -1.7%
% inhibition female (individual replicates) R4 [2, 3]: 7.4%
HitlevelF [2, 6]: 0

CC(=O)N(Cc1ccc(CC(C)NCCc2cccc(Cl)c2)cc1)Cc1ccc(CC(C)NCCc2cccc(Cl)c2)cc1 (stereo not shown) [TCMDC-139678]
Average inhibition male (%) [1, 3]: 26.9%
% inhibition male (individual replicates) R1 [1, 3]: 39.1%
% inhibition male (individual replicates) R3 [1, 3]: 19.2%
% inhibition male (individual replicates) R4 [1, 3]: 27.9%
HitlevelM [1, 4]: 0
Activity [1, 5]: 0
Average inhibition female (%) [2, 3]: 14.1%
% inhibition female (individual replicates) R1 [2, 3]: 15.3%
% inhibition female (individual replicates) R3 [2, 3]: 11.1%
% inhibition female (individual replicates) R4 [2, 3]: 16.3%
HitlevelF [2, 6]: 0

COc1ccc(CCNC(C)Cc2ccc(C(=O)Nc3ccc(CC(C)NCCc4cccc(Cl)c4)cc3)cc2)cc1 (stereo not shown) [TCMDC-139750]
Average inhibition male (%) [1, 7]: 69.1%
% inhibition male (individual replicates) R1 [1, 7]: 78.2%
% inhibition male (individual replicates) R3 [1, 7]: 37.9%
% inhibition male (individual replicates) R4 [1, 7]: 84.9%
HitlevelM [1, 8]: 3
Average inhibition female (%) [2, 7]: 25.6%
% inhibition female (individual replicates) R1 [2, 7]: 25.4%
% inhibition female (individual replicates) R3 [2, 7]: 18.2%
% inhibition female (individual replicates) R4 [2, 7]: 15.5%
HitlevelF [2, 9]: 0

CC(CCCC(=O)Nc1ccc(CC(C)NCCc2cccc(Cl)c2)cc1)NCCc1cccc(Cl)c1 (stereo not shown) [TCMDC-139798]
Average inhibition male (%) [1, 3]: 45.7%
% inhibition male (individual replicates) R1 [1, 3]: 47.5%
% inhibition male (individual replicates) R3 [1, 3]: 7.0%
% inhibition male (individual replicates) R4 [1, 3]: 68.9%
HitlevelM [1, 4]: 2
Activity [1, 5]: 0
Average inhibition female (%) [2, 3]: 14.3%
% inhibition female (individual replicates) R1 [2, 3]: 14.3%
% inhibition female (individual replicates) R3 [2, 3]: 3.2%
% inhibition female (individual replicates) R4 [2, 3]: 8.4%
HitlevelF [2, 6]: 0

CC(CCCCCC(=O)Nc1ccc(CC(C)NCCc2cccc(Cl)c2)cc1)NCCc1cccc(Cl)c1 (stereo not shown) [TCMDC-139800]
Average inhibition male (%) [1, 3]: 45.2%
% inhibition male (individual replicates) R1 [1, 3]: 25.8%
% inhibition male (individual replicates) R3 [1, 3]: -13.9%
% inhibition male (individual replicates) R4 [1, 3]: 77.6%
HitlevelM [1, 10]: 2
Average inhibition female (%) [2, 3]: 20.4%
% inhibition female (individual replicates) R1 [2, 3]: 18.8%
% inhibition female (individual replicates) R3 [2, 3]: 1.8%
% inhibition female (individual replicates) R4 [2, 3]: 5.6%
HitlevelF [2, 11]: 1

CCOc1ccccc1CCNC(C)Cc1ccc(C(=O)Nc2ccc(CC(C)NCCc3cccc(Cl)c3)cc2)cc1 (stereo not shown) [TCMDC-139805]
Average inhibition male (%) [1, 3]: 59.5%
% inhibition male (individual replicates) R1 [1, 3]: 59.5%
% inhibition male (individual replicates) R3 [1, 3]: 21.2%
% inhibition male (individual replicates) R4 [1, 3]: 86.9%
HitlevelM [1, 10]: 3
Average inhibition female (%) [2, 3]: 24.4%
% inhibition female (individual replicates) R1 [2, 3]: 22.1%
% inhibition female (individual replicates) R3 [2, 3]: 9.3%
% inhibition female (individual replicates) R4 [2, 3]: 29.9%
HitlevelF [2, 11]: 0

CC(Cc1ccc(COc2ccc(CC(CO)NCCc3cccc(Cl)c3)cc2)cc1)NCCc1cccc(Cl)c1.Cl (stereo not shown) [TCMDC-139844]
% inhibition male (individual replicates) R1 [1, 12]: -13.5%
% inhibition male (individual replicates) R3 [1, 12]: 14.9%
% inhibition male (individual replicates) R4 [1, 12]: 2.8%
Average inhibition male (%) [1, 5]: 1.7%
% inhibition female (individual replicates) R1 [2, 12]: -3.0%
% inhibition female (individual replicates) R3 [2, 12]: -11.7%
% inhibition female (individual replicates) R4 [2, 12]: 12.8%
Average inhibition female (%) [2, 5]: 1.7%

CC(Cc1ccc(NC(=O)c2ccc(CNCCc3ccccc3)cc2)cc1)NCCc1cccc(Cl)c1.Cl (stereo not shown) [TCMDC-139867]
Average inhibition male (%) [1, 3]: 35.8%
% inhibition male (individual replicates) R1 [1, 3]: 30.2%
% inhibition male (individual replicates) R3 [1, 3]: 5.8%
% inhibition male (individual replicates) R4 [1, 3]: 68.9%
HitlevelM [1, 4]: 1
Activity [1, 5]: 0
Average inhibition female (%) [2, 3]: 17.5%
% inhibition female (individual replicates) R1 [2, 3]: 19.8%
% inhibition female (individual replicates) R3 [2, 3]: 17.3%
% inhibition female (individual replicates) R4 [2, 3]: 1.2%
HitlevelF [2, 6]: 0

CCCCCCCN1CC[C@@H](CCCc2ccnc3ccc(OC)cc23)[C@@H](CNC)C1.O=C(O)C(=O)O [TCMDC-139875]
Average inhibition male (%) [1, 3]: 45.5%
% inhibition male (individual replicates) R1 [1, 3]: 37.4%
% inhibition male (individual replicates) R3 [1, 3]: 18.3%
% inhibition male (individual replicates) R4 [1, 3]: 73.6%
HitlevelM [1, 10]: 2
Average inhibition female (%) [2, 3]: 34.8%
% inhibition female (individual replicates) R1 [2, 3]: 28.9%
% inhibition female (individual replicates) R3 [2, 3]: 7.1%
% inhibition female (individual replicates) R4 [2, 3]: 50.9%
HitlevelF [2, 11]: 2
